Test results taken from ChEMBL document CHEMBL3862033 (J Med Chem, 2016).

Target: 5-hydroxytryptamine receptor 5A (Homo sapiens) (UniProt P47898)
Assay: Displacement of [3H]LSD from human 5-HT5A receptor expressed in Flp-In-CHO cell membranes incubated for 90 mins under dark condition by microbeta scintillation counting method relative to control
Design: concentration or dose not given beside the values
Conditions: not given

Sequence of 5-hydroxytryptamine receptor 5A (Homo sapiens) (P47898 whole entry): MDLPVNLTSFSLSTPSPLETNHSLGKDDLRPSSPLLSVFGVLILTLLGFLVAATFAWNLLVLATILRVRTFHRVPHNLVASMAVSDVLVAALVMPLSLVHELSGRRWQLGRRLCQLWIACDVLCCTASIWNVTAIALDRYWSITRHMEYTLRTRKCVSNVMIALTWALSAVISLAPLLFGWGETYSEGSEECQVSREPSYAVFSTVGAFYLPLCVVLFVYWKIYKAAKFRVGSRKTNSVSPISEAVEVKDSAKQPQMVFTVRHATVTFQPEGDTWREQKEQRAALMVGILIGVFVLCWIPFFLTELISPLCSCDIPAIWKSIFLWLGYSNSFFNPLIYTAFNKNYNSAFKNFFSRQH

SMILES | inhibition
Nc1nc(Cl)nc2c1ncn2[C@H]1[C@H](O)[C@H](O)[C@]2(CO)C[C@H]12 | < 50%
CC(C)[C@@H](Nc1nc(Cl)nc2c1ncn2[C@H]1[C@H](O)[C@H](O)[C@]2(CO)C[C@H]12)C1CC1 | < 50%
Nc1nc(Cl)nc2c1ncn2[C@@H]1O[C@H](CO)[C@@H](O)[C@H]1O | < 50%

Target: T1, Adenosine receptor A1 (Homo sapiens, UniProt P30542)
T1 sequence (P30542 whole entry): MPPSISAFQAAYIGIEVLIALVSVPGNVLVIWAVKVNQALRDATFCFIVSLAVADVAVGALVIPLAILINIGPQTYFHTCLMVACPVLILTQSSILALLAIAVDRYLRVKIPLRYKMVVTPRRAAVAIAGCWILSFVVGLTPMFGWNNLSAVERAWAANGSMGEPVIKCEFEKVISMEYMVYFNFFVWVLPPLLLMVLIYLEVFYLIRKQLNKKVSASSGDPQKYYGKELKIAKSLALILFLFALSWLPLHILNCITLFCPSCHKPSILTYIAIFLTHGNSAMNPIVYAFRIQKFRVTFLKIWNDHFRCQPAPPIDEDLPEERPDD
Assay: Displacement of [3H]N6-phenylisopropyladenosine from recombinant human A1AR expressed in CHO cell membranes after 60 mins by liquid scintillation counting method
Conditions: not given

SMILES | Ki
CC(C)[C@@H](Nc1nc(Cl)nc2c1ncn2[C@H]1[C@H](O)[C@H](O)[C@]2(CO)C[C@H]12)C1CC1 | 103 nM
Nc1nc(Cl)nc2c1ncn2[C@@H]1O[C@H](CO)[C@@H](O)[C@H]1O | 2.8 nM

Target: 5-hydroxytryptamine receptor 4 (Homo sapiens) (UniProt Q13639)
Sequence (Q13639 whole entry): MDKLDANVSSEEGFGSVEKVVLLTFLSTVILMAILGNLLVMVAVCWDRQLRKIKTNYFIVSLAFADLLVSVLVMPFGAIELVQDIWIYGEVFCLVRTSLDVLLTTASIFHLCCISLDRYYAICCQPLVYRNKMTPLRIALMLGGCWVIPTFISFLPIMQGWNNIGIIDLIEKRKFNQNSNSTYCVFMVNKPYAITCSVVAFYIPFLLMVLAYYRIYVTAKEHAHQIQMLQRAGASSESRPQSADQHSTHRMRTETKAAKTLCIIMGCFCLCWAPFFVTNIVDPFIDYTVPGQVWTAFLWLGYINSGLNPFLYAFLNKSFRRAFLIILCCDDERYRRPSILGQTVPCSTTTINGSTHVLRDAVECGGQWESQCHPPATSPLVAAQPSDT
Assay: Displacement of [3H]GR113808 from human 5-HT4 receptor at 10 uM incubated for 90 mins under dark condition by microbeta scintillation counting method relative to control
Conditions: not given

SMILES | inhibition
Nc1nc(Cl)nc2c1ncn2[C@H]1[C@H](O)[C@H](O)[C@]2(CO)C[C@H]12 | < 50%
CC(C)[C@@H](Nc1nc(Cl)nc2c1ncn2[C@H]1[C@H](O)[C@H](O)[C@]2(CO)C[C@H]12)C1CC1 | < 50%
Nc1nc(Cl)nc2c1ncn2[C@@H]1O[C@H](CO)[C@@H](O)[C@H]1O | < 50%

Target: T2, 5-hydroxytryptamine receptor 2B (Homo sapiens, UniProt P41595)
T2 sequence (P41595 whole entry): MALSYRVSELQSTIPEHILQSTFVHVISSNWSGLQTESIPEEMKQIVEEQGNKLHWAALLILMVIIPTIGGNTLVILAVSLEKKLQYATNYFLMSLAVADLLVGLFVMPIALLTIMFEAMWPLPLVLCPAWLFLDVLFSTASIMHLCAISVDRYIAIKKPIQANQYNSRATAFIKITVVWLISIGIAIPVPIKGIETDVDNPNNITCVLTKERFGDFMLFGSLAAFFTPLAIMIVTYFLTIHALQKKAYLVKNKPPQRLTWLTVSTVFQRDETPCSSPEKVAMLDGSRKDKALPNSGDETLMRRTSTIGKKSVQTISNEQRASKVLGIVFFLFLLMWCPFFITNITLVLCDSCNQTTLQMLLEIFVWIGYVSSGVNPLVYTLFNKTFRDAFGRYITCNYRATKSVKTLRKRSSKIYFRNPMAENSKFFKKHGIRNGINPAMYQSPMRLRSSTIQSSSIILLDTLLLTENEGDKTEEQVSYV
Assay: not given
Conditions: HEK293, at 10 µM

SMILES | inhibition
Nc1nc(Cl)nc2c1ncn2[C@H]1[C@H](O)[C@H](O)[C@]2(CO)C[C@H]12 | > 50%
Nc1nc(Cl)nc2c1ncn2[C@@H]1O[C@H](CO)[C@@H](O)[C@H]1O | < 10%

Target: T3, 5-hydroxytryptamine receptor 2A (Homo sapiens, UniProt P28223)
T3 sequence (P28223 whole entry): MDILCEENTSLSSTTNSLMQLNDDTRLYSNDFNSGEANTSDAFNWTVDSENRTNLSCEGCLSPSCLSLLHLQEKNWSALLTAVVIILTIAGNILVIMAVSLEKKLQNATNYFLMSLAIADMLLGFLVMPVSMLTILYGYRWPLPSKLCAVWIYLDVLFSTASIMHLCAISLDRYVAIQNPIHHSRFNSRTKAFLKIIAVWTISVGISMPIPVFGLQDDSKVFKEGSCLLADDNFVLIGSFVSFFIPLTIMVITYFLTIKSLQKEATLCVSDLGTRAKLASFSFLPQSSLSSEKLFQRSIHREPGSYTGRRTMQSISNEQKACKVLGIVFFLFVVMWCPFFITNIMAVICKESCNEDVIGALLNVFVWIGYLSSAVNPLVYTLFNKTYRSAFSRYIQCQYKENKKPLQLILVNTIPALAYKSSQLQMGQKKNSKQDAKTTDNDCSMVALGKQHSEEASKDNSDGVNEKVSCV
Assay: Displacement of [3H]ketanserin from human 5-HT2A receptor expressed in HEK-T cell membranes incubated for 90 mins under dark condition by microbeta scintillation counting method
Conditions: not given

SMILES | Ki
Nc1nc(Cl)nc2c1ncn2[C@H]1[C@H](O)[C@H](O)[C@]2(CO)C[C@H]12 | > 10000 nM
CC(C)[C@@H](Nc1nc(Cl)nc2c1ncn2[C@H]1[C@H](O)[C@H](O)[C@]2(CO)C[C@H]12)C1CC1 | > 10000 nM
Nc1nc(Cl)nc2c1ncn2[C@@H]1O[C@H](CO)[C@@H](O)[C@H]1O | > 10000 nM

Target: 5-hydroxytryptamine receptor 1B (Homo sapiens) (UniProt P28222)
Sequence (P28222 whole entry): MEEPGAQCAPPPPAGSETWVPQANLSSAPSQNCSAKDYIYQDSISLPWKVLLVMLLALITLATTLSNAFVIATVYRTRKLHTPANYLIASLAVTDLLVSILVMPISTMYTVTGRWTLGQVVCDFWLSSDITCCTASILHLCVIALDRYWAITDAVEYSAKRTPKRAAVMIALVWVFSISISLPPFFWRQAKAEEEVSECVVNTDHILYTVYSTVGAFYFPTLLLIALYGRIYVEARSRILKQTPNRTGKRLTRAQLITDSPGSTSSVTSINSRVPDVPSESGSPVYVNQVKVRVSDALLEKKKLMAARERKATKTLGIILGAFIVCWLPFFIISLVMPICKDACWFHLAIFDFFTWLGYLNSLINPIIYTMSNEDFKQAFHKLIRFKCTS
Assay: Displacement of [3H]5-CT from human 5-HT1BR expressed in HEK cell membranes at 10 uM incubated for 90 mins under dark condition by microbeta scintillation counting method relative to control
Conditions: HEK293

SMILES | inhibition
Nc1nc(Cl)nc2c1ncn2[C@H]1[C@H](O)[C@H](O)[C@]2(CO)C[C@H]12 | < 50%
CC(C)[C@@H](Nc1nc(Cl)nc2c1ncn2[C@H]1[C@H](O)[C@H](O)[C@]2(CO)C[C@H]12)C1CC1 | < 50%
Nc1nc(Cl)nc2c1ncn2[C@@H]1O[C@H](CO)[C@@H](O)[C@H]1O | < 50%

Target: T4, 5-hydroxytryptamine receptor 1A (Homo sapiens) (UniProt P08908)
T4 sequence (whole entry): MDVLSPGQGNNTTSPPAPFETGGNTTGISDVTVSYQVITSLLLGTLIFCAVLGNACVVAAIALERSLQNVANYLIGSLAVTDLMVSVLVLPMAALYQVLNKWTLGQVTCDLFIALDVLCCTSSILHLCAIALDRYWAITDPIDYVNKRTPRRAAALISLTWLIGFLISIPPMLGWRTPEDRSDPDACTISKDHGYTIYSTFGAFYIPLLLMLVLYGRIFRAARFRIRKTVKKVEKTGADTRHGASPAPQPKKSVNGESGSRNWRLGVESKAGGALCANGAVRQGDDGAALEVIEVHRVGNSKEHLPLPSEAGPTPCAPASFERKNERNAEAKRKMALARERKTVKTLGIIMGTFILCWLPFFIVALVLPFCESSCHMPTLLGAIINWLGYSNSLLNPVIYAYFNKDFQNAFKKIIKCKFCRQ
Assay: Displacement of [3H]WAY100635 from human 5-HT1AR expressed in CHO cell membranes at 10 uM incubated for 90 mins under dark condition by microbeta scintillation counting method relative to control
Conditions: not given

SMILES | inhibition
Nc1nc(Cl)nc2c1ncn2[C@H]1[C@H](O)[C@H](O)[C@]2(CO)C[C@H]12 | < 50%
CC(C)[C@@H](Nc1nc(Cl)nc2c1ncn2[C@H]1[C@H](O)[C@H](O)[C@]2(CO)C[C@H]12)C1CC1 | < 50%
Nc1nc(Cl)nc2c1ncn2[C@@H]1O[C@H](CO)[C@@H](O)[C@H]1O | < 50%

Target: T2, 5-hydroxytryptamine receptor 2B
Assay: biochemical
Format: cell-based, HEK293
Conditions: not given

SMILES | Ki
Nc1nc(Cl)nc2c1ncn2[C@H]1[C@H](O)[C@H](O)[C@]2(CO)C[C@H]12 | > 10000 nM

Target: T5, 5-hydroxytryptamine receptor 3A (Homo sapiens) (UniProt P46098)
T5 sequence (whole entry): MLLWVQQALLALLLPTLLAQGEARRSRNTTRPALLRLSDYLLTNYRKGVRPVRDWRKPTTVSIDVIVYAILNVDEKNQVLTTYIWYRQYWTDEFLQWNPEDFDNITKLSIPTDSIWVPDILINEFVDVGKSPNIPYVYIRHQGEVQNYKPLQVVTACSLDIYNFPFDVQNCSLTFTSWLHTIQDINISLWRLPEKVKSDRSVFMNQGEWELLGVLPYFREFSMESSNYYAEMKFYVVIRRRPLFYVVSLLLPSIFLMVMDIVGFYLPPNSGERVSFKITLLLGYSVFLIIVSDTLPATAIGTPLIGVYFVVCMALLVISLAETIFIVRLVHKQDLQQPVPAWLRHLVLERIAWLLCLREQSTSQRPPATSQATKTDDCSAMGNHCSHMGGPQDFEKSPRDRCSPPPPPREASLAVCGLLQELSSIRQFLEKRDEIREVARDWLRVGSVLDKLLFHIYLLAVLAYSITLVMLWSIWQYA
Assay: Displacement of [3H]GR65630 from human 5-HT3 receptor expressed in HEK-T cell membranes at 10 uM incubated for 90 mins under dark condition by microbeta scintillation counting method relative to control
Conditions: not given

SMILES | inhibition
Nc1nc(Cl)nc2c1ncn2[C@H]1[C@H](O)[C@H](O)[C@]2(CO)C[C@H]12 | < 50%
CC(C)[C@@H](Nc1nc(Cl)nc2c1ncn2[C@H]1[C@H](O)[C@H](O)[C@]2(CO)C[C@H]12)C1CC1 | < 50%
Nc1nc(Cl)nc2c1ncn2[C@@H]1O[C@H](CO)[C@@H](O)[C@H]1O | < 50%

Target: T3, 5-hydroxytryptamine receptor 2A
Assay: Displacement of [3H]ketanserin from human 5-HT2A receptor expressed in HEK-T cell membranes at 10 uM incubated for 90 mins under dark condition by microbeta scintillation counting method relative to control
Conditions: not given

SMILES | inhibition
Nc1nc(Cl)nc2c1ncn2[C@H]1[C@H](O)[C@H](O)[C@]2(CO)C[C@H]12 | < 10%
CC(C)[C@@H](Nc1nc(Cl)nc2c1ncn2[C@H]1[C@H](O)[C@H](O)[C@]2(CO)C[C@H]12)C1CC1 | < 10%
Nc1nc(Cl)nc2c1ncn2[C@@H]1O[C@H](CO)[C@@H](O)[C@H]1O | 46%

Target: 5-hydroxytryptamine receptor 7 (Homo sapiens) (UniProt P34969)
Sequence (P34969 whole entry): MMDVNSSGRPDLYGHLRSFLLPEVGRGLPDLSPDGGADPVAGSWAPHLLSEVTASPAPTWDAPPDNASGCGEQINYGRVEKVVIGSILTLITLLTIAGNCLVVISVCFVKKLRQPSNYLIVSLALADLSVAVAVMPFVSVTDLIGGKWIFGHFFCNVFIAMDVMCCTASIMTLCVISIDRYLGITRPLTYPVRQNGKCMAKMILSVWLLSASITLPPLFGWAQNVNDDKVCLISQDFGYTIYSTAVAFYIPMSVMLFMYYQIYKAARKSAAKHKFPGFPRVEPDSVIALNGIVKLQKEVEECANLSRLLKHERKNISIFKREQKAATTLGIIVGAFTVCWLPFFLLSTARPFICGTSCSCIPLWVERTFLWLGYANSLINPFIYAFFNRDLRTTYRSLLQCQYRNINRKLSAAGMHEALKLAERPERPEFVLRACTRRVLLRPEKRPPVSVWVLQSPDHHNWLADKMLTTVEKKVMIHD
Assay: Displacement of [3H]LSD from human 5-HT7A receptor expressed in HEK cell membranes at 10 uM incubated for 90 mins under dark condition by microbeta scintillation counting method relative to control
Conditions: HEK293

SMILES | inhibition
Nc1nc(Cl)nc2c1ncn2[C@H]1[C@H](O)[C@H](O)[C@]2(CO)C[C@H]12 | < 50%
CC(C)[C@@H](Nc1nc(Cl)nc2c1ncn2[C@H]1[C@H](O)[C@H](O)[C@]2(CO)C[C@H]12)C1CC1 | < 50%
Nc1nc(Cl)nc2c1ncn2[C@@H]1O[C@H](CO)[C@@H](O)[C@H]1O | < 50%

Target: T6, 5-hydroxytryptamine receptor 2C (Homo sapiens, UniProt P28335)
T6 sequence (P28335 whole entry): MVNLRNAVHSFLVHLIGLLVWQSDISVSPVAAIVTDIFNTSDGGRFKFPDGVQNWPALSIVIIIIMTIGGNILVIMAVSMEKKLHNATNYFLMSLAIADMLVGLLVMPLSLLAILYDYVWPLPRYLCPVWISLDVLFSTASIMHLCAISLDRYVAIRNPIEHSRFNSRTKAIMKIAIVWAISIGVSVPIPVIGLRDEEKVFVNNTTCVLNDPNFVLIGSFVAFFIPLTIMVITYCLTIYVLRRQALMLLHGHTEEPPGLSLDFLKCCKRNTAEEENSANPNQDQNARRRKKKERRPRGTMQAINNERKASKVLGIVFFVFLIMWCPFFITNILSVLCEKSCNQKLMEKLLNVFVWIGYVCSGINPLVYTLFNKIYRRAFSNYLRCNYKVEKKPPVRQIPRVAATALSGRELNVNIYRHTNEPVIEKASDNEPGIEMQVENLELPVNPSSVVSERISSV
Assay: Displacement of [3H]mesulergine from human 5-HT2CR expressed in Flp-In HEK cell membranes incubated for 90 mins under dark condition by microbeta scintillation counting method
Design: species or system HEK293
Conditions: not given

SMILES | Ki
CC(C)[C@@H](Nc1nc(Cl)nc2c1ncn2[C@H]1[C@H](O)[C@H](O)[C@]2(CO)C[C@H]12)C1CC1 | 190 nM

Target: T7, Adenosine receptor A3 (Homo sapiens, UniProt P0DMS8)
T7 sequence (P0DMS8 whole entry): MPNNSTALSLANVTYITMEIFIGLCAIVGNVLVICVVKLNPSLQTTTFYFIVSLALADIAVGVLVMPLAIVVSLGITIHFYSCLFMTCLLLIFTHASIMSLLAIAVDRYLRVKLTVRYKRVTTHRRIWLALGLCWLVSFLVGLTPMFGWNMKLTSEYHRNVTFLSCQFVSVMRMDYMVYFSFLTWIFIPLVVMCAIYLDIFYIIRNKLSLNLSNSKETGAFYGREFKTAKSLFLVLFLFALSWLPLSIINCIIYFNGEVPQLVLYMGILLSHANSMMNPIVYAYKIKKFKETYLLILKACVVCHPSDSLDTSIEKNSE
Assay: Displacement of [125l]N 6-(4-amino-3-iodobenzyl)adenosine-5'-N-methyluronamide from recombinant human A3AR expressed in CHO cell membranes after 60 mins by gamma counting method
Conditions: not given

SMILES | Ki
CC(C)[C@@H](Nc1nc(Cl)nc2c1ncn2[C@H]1[C@H](O)[C@H](O)[C@]2(CO)C[C@H]12)C1CC1 | 1240 nM

Target: 5-hydroxytryptamine receptor 6 (Homo sapiens) (UniProt P50406)
Sequence (P50406 whole entry): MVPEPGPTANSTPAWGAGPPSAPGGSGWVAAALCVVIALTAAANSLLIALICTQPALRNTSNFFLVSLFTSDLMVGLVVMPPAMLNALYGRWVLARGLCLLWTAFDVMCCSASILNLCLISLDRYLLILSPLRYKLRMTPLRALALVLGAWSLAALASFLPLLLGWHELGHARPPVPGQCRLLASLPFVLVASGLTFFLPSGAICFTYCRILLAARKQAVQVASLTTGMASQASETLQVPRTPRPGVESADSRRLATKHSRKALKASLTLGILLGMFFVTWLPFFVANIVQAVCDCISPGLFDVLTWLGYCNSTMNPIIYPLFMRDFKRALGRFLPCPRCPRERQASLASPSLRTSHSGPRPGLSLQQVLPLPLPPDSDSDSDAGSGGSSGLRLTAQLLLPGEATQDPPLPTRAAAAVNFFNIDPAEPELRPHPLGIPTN
Assay: Displacement of [3H]LSD from human 5-HT6 receptor expressed in HEK cell membranes at 10 uM incubated for 90 mins under dark condition by microbeta scintillation counting method relative to control
Conditions: HEK293

SMILES | inhibition
Nc1nc(Cl)nc2c1ncn2[C@H]1[C@H](O)[C@H](O)[C@]2(CO)C[C@H]12 | < 50%
CC(C)[C@@H](Nc1nc(Cl)nc2c1ncn2[C@H]1[C@H](O)[C@H](O)[C@]2(CO)C[C@H]12)C1CC1 | < 50%
Nc1nc(Cl)nc2c1ncn2[C@@H]1O[C@H](CO)[C@@H](O)[C@H]1O | < 50%

Target: 5-hydroxytryptamine receptor 1D (Homo sapiens) (UniProt P28221)
Sequence (P28221 whole entry): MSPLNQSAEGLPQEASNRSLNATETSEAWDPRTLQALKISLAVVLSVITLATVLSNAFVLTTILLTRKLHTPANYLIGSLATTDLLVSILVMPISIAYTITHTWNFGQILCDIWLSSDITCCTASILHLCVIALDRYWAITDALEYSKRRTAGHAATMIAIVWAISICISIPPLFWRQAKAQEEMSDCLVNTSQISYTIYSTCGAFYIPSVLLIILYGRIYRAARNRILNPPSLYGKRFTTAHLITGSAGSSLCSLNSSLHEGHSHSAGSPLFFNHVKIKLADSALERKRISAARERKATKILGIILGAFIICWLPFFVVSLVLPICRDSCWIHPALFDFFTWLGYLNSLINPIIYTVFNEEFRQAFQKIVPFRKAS
Assay: Displacement of [3H]5-CT from human 5-HT1D receptor expressed in HEK-T cell membranes at 10 uM incubated for 90 mins under dark condition by microbeta scintillation counting method relative to control
Conditions: not given

SMILES | inhibition
Nc1nc(Cl)nc2c1ncn2[C@H]1[C@H](O)[C@H](O)[C@]2(CO)C[C@H]12 | < 50%
CC(C)[C@@H](Nc1nc(Cl)nc2c1ncn2[C@H]1[C@H](O)[C@H](O)[C@]2(CO)C[C@H]12)C1CC1 | < 50%
Nc1nc(Cl)nc2c1ncn2[C@@H]1O[C@H](CO)[C@@H](O)[C@H]1O | < 50%

Target: T8, 5-hydroxytryptamine receptor 2C (Homo sapiens) (UniProt P28335)
T8 sequence (whole entry): T6 sequence (P28335 whole entry)
Assay: Displacement of [3H]mesulergine from human 5-HT2CR expressed in Flp-In HEK cell membranes at 10 uM incubated for 90 mins under dark condition by microbeta scintillation counting method relative to control
Conditions: HEK293

SMILES | inhibition
Nc1nc(Cl)nc2c1ncn2[C@H]1[C@H](O)[C@H](O)[C@]2(CO)C[C@H]12 | < 10%
CC(C)[C@@H](Nc1nc(Cl)nc2c1ncn2[C@H]1[C@H](O)[C@H](O)[C@]2(CO)C[C@H]12)C1CC1 | > 50%
Nc1nc(Cl)nc2c1ncn2[C@@H]1O[C@H](CO)[C@@H](O)[C@H]1O | < 10%

Target: 5-hydroxytryptamine receptor 1E (Homo sapiens) (UniProt P28566)
Sequence (P28566 whole entry): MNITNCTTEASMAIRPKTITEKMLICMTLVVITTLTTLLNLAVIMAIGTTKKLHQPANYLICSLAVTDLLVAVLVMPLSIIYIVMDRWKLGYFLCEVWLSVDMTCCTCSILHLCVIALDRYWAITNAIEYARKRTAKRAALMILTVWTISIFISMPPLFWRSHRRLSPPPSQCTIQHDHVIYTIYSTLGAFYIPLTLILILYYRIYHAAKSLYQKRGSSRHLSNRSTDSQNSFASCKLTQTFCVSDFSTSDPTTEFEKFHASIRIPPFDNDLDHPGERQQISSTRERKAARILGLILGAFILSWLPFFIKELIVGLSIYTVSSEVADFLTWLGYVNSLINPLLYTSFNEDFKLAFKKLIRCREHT
Assay: Displacement of [3H]5-HT from human 5-HT1E receptor expressed in HEK cell membranes at 10 uM incubated for 90 mins under dark condition by microbeta scintillation counting method relative to control
Conditions: HEK293

SMILES | inhibition
Nc1nc(Cl)nc2c1ncn2[C@H]1[C@H](O)[C@H](O)[C@]2(CO)C[C@H]12 | < 50%
CC(C)[C@@H](Nc1nc(Cl)nc2c1ncn2[C@H]1[C@H](O)[C@H](O)[C@]2(CO)C[C@H]12)C1CC1 | < 50%
Nc1nc(Cl)nc2c1ncn2[C@@H]1O[C@H](CO)[C@@H](O)[C@H]1O | < 50%
